Consider eight compounds from patent publication US12031171B2, “Fatty acid esters against infections in fermentations” (PURAC BIOCHEM BV, priority 2016, dated 2024).

Experiment [1] has as its system Clostridium perfringens ATCC 13124. Type of experiment: cell-based. Conditions: brain heart infusion broth, pH 6.0, 30° C., 0% oxygen.
For experiment [2], the system named is Clostridium pasteurianum JEG2. Briefly: Mixed culture fermentation of Escherichia coli TG128 with Clostridium pasteurianum JEG2 (7 litre fermenters). The experiment is classed as cell-based. The following applies: Fermenter 3, mixed culture.
Setting [3] is: 0.05% (w/v) added, 25-35 hours, pH 6.5, 37° C.

With `CCCCCCCCCC(=O)OC(C)C(=O)O` (stereo not shown) [Decanoyl-lactylate], the MIC value in experiment [1] is reported as 0.04 % (w/v).

Consider `CCCCCCCCCCCC(=O)OC(C)C(=O)O` (stereo not shown) [Dodecanoyl-lactylate], for which the MIC value in experiment [1] is 0.002 % (w/v).

As for `CCCCCCCCCCCCCCCC(=O)OC(C)C(=O)O` (stereo not shown) [Hexadecanoyl-lactylate], the MIC value in experiment [1] is 0.002 % (w/v).

Consider `CCCCCCCC(=O)OC(C)C(=O)[O-].[Na+]` (stereo not shown) [Octanoyl-lactylate], for which the MIC value in experiment [1] is 0.05 % (w/v).

Regarding `CCCCCCCCC=CCCCCCCCC(=O)OC(C)C(=O)O` (stereo not shown) [Olacta, Octadecenoyl-lactylate], in experiment [1], the MIC value is on record as 0.02 % (w/v).

`CCCCCCCCCCCCCCOS(=O)(=O)[O-].[Na+]` [Sodium tetradecyl sulfate, reference compound]: the MIC value in experiment [1] is 0.001 % (w/v).

On to `CCCCCCCCCCCCCC(=O)O` [Tetradecanoic acid, reference compound], for which the MIC value in experiment [1] was >0.01 % (w/v).

With `CCCCCCCCCCCCCC(=O)OC(C)C(=O)O` (stereo not shown) [Tetradecanoyl-lactylate, tetradecanoyl-lactylate], the “results of Fermenter 3 compared with those at 0.05% (w/v)” value in experiment [2] (0.025% (w/v) added) is “Exactly the same results”. Further, in experiment [2] (0.05% (w/v) added), the “endospore bearing cells, microscopic examination of the culture broth” value is recorded as “no endospore bearing cells”; the “foam and putrid smell produced by the fermenter” value is given as “no foam or putrid smell”; the “impurity profile of fermentation broth compared with the Escherichia coli TG128 standard fermentation (Fermenter 1)” value is listed as “no difference in impurity profile”; the “performance of Fermenter 3 compared with Fermenter 1 (pure culture of Escherichia coli TG128)” value is on record as “in every respect similar”. Also, in experiment [2] (setting [3]), the 2-hydroxy butyric acid is <0.1 g/L, the “% enantiomeric excess: (R − S)/(R + S)” value is reported as 99.3%, the Acetic acid turned out to be 0.3 g/L and the Benzoic acid is <0.3 g/L. In experiment [2] (setting [3]), the Butyric acid worked out at 0.1 g/L, the Citric acid was <0.5 g/L, the Ethanol was determined as 0.08 g/L and the Formic acid is <0.2 g/L. Further, in experiment [2] (setting [3]), the Fumaric acid is <0.2 g/L, the Glycolic acid was <0.5 g/L, the Maleic acid is <0.2 g/L and the Malic acid was <0.5 g/L. Also, in experiment [2] (setting [3]), the Oxalic acid was <0.2 g/L, the Propionic acid is <0.1 g/L, the Pyruvic acid was <0.1 g/L and the R-lactate amounted to 81.8 g/L. Further, in experiment [2] (setting [3]), the S-lactate worked out at 0.3 g/L, the Sorbic acid is <0.1 g/L, the Succinic acid is <0.1 g/L and the glucose stood at 2.3 g/L. The “% enantiomeric excess: (R − S)/(R + S)” value in experiment [2] (0.05% (w/v) added, 25-35 hours, pH 6.5, 37° C., listed as tetradacanoyl-lactylate) is given as ~100%. For the same compound, the MIC value in experiment [1] is recorded as 0.001 % (w/v).
